Test: Stability study (impurities) at 40° C./75% RH for one week
Type: physicochemical
Procedure: Stability study was conducted for active ingredient, compositions of the present invention and comparative composition. The study was conducted at 40° C./75% RH for one week.

[1] = After one week at 40° C./75% RH, Sample (API)

- Impurity 1 [1]: 0.05 % w/w
- Total Impurities [1]: 0.05 % w/w
- Impurity 1 (Initial, Sample): 0.05 % w/w
- Total Impurities (Initial, Sample): 0.05 % w/w
SMILES: CCCCCCCCc1ccc(CCC(N)(CO)CO)cc1.Cl [API, 2-amino-2-[2-(4-octylphenyl)ethyl]-propane-1,3-diol]
